Values quoted from earlier work as cited in US20080003592A1, “Method for conducting pharmacogenomics-based studies” (priority 2003, published 2008).
Counter-ions that a name gives are not always drawn.

Tests used:
[1] = advanced colorectal cancer
[2] = depending on the regimen

| SMILES | patients with an objective response to the drug ([1]; standard therapy) | patients with a complete response (complete tumor disappearance) ([1]; of the patients with an objective response) | patients suffering serious gastrointestinal or hematopoietic toxicity [2] | patients minimally improved (Alzheimer's patients receiving Cognex, controls about 33%) | patients showing no change or minimal worsening of their disease (patients receiving Cognex for Alzheimer's disease, controls about 68%) | patients much improved (patients receiving Cognex, controls about 1%) |
| --- | --- | --- | --- | --- | --- | --- |
| O=c1[nH]cc(F)c(=O)[nH]1 [5-fluorouracil] | 20-40% | 1-5% | 20-30% |  |  |  |
| Nc1c2c(nc3ccccc13)CCCC2 [Cognex, tacrine hydrochloride] |  |  |  | About 58% | about 45% | about 2% |
